Data on 2 compounds can be found in patent US20090227555A2, “Novel Pyridine Compounds” (priority 2005, published 2009).

This experiment concerns the target T1, P2Y12 receptor (Homo sapiens, UniProt Q9H244).
T1 construct: expressed in transfected cells; host or cells: CHO cells (membrane preparation)
Briefly: Functional inhibition of 2-Me-S-ADP induced P2Y12 signalling (35S-GTPγS, cell membranes from P2Y12 transfected CHO-cells). Format: biochemical. The source says: Functional inhibition of—the P2Y12 receptor can be measured by in vitro assays using cell membranes from P2Y12 transfected CHO-cells. Inhibition of platelet aggregation as a result of P2Y12 antagonism is best measured by ADP-induced aggregation of washed human platelets, activation of the platelet fibrinogen receptor (GPIIb/IIIa), or aggregation in whole blood via residual platelet counting. Detailed methodology is indicated below.
Functional inhibition of 2-Me-S-ADP induced P2Y12 signalling: 5 μg of membranes were diluted in 200 μl of 200 mM NaCl, 1 mM MgCl2, 50 mM HEPES (pH 7.4), 0.01% BSA, 30 μg/ml saponin and 10 μM GDP. To this was added an EC80 concentration of agonist (2-methyl-thio-adenosine diphosphate), the required concentration of test compound and 0.1 μCi ^35S-GTPγS. The reaction was allowed to proceed at 30° C. for 45 min. Samples were then transferred on to GF/B filters using a cell harvester and washed with wash buffer (50 mM Tris (pH 7.4), 5 mM MgCl2, 50 mM NaCl). Filters were then covered with scintilant and counted for the amount of ^35S-GTPγS retained by the filter. Maximum activity was that determined in the presence of the agonist and minimum activity in the absence of the agonist following subtraction of the value determined for non-specific activity.
(GTPγS resists hydrolysis and so accumulates on activated G proteins.)

Where two headings read alike, the source gives them in different places.

T1 sequence (Q9H244 whole entry): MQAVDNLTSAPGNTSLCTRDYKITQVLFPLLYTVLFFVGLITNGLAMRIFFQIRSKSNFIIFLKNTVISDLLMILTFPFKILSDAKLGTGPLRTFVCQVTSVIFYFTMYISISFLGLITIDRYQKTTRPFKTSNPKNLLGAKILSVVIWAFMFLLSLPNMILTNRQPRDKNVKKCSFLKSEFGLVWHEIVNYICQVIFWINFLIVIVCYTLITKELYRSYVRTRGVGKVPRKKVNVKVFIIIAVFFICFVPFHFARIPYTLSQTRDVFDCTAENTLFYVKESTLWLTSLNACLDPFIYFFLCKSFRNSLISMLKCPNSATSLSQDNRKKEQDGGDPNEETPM

In the case of `CC(C)OC(=O)c1cnc(N2CCN(C(=O)NS(=O)(=O)c3ccc(Cl)s3)CC2)c(Cl)c1` [Example 18, Isopropyl 5-chloro-6-[4-({[(5-chloro-2-thienyl)sulfonyl]amino}carbonyl)piperazin-1-yl]nicotinate], half-maximal inhibition (IC50) required 520 nM.
With `CCOC(=O)c1cnc(N2CCN(C(=O)NS(=O)(=O)c3ccccc3)CC2)c(Cl)c1` [Example 10, Ethyl 5-chloro-6-(4-{[(phenylsulfonyl)amino]carbonyl}piperazin-1-yl)nicotinate], the IC50 (5 μg membranes, EC80 concentration of agonist 2-methyl-thio-adenosine diphosphate, 35S-GTPγS, 30° C., 45 min, read-out: IC50) amounted to 610 nM.

For orientation: IC50 means the concentration that inhibits the measured activity by half.
